In ChEMBL document CHEMBL5724806, “Unraveling interindividual differences and functional consequences of gut microbial metabolism of immunosuppressants” (2024):

Legend:
Assay type in all cases: ADME
[1] = The drug is tested on Gemella haemolysans strain: DSM107751 for biotransformation under anaerobic condition. The drug concentrations were measured over 6 timepoints collected between 0 and 12 hours of incubation by liquid-chromatography-coupled mass spectrometry (LC–MS); design: dose 5 uM, timepoint 0, 1.5, 3, 6, 9, 12 hours; conditions: 5 µM
[2] = The drug is tested on Streptococcus anginosus strain: DSM20563 for biotransformation under microaerobic condition. The drug concentrations were measured over 6 timepoints collected between 0 and 12 hours of incubation by liquid-chromatography-coupled mass spectrometry (LC–MS); design: dose 5 uM, timepoint 0, 1.5, 3, 6, 9, 12 hours; conditions: 5 µM
[3] = The drug is tested on Lactobacillus paracasei strain: ATCC27092 for biotransformation under microaerobic condition. The drug concentrations were measured over 6 timepoints collected between 0 and 12 hours of incubation by liquid-chromatography-coupled mass spectrometry (LC–MS); design: dose 5 uM, timepoint 0, 1.5, 3, 6, 9, 12 hours; conditions: lacticaseibacillus paracasei, 5 µM
[4] = The drug is tested on the gut metagenome community of P-04 with ENA study accession number: PRJEB31790 for biotransformation under microaerobic condition. The drug concentrations were measured over 7 timepoints collected between 0 and 12 hours of incubation by liquid-chromatography-coupled mass spectrometry (LC–MS); design: dose 5 uM, timepoint 0, 0.75, 1.5, 3, 6, 9, 12 hours; conditions: 5 µM
[5] = The drug is tested on the gut metagenome community of T-03 with ENA study accession number: PRJEB31790 for biotransformation under anaerobic condition. The drug concentrations were measured over 7 timepoints collected between 0 and 12 hours of incubation by liquid-chromatography-coupled mass spectrometry (LC–MS); design: dose 5 uM, timepoint 0, 0.75, 1.5, 3, 6, 9, 12 hours; conditions: 5 µM
[6] = The drug is tested on the gut metagenome community of T-03 with ENA study accession number: PRJEB31790 for biotransformation under microaerobic condition. The drug concentrations were measured over 7 timepoints collected between 0 and 12 hours of incubation by liquid-chromatography-coupled mass spectrometry (LC–MS); design: dose 5 uM, timepoint 0, 0.75, 1.5, 3, 6, 9, 12 hours; conditions: 5 µM
[7] = The drug is tested on the gut metagenome community of A-06 with ENA study accession number: PRJEB31790 for biotransformation under anaerobic condition. The drug concentrations were measured over 7 timepoints collected between 0 and 12 hours of incubation by liquid-chromatography-coupled mass spectrometry (LC–MS); design: dose 5 uM, timepoint 0, 0.75, 1.5, 3, 6, 9, 12 hours; conditions: 5 µM
[8] = The drug is tested on Lactobacillus reuteri strain: DSM20016 for biotransformation under microaerobic condition. The drug concentrations were measured over 6 timepoints collected between 0 and 12 hours of incubation by liquid-chromatography-coupled mass spectrometry (LC–MS); design: dose 5 uM, timepoint 0, 1.5, 3, 6, 9, 12 hours; conditions: limosilactobacillus reuteri, 5 µM
[9] = The drug is tested on the gut metagenome community of P-02 with ENA study accession number: PRJEB31790 for biotransformation under microaerobic condition. The drug concentrations were measured over 7 timepoints collected between 0 and 12 hours of incubation by liquid-chromatography-coupled mass spectrometry (LC–MS); design: dose 5 uM, timepoint 0, 0.75, 1.5, 3, 6, 9, 12 hours; conditions: 5 µM
[10] = The drug is tested on the gut metagenome community of A-05 with ENA study accession number: PRJEB31790 for biotransformation under microaerobic condition. The drug concentrations were measured over 7 timepoints collected between 0 and 12 hours of incubation by liquid-chromatography-coupled mass spectrometry (LC–MS); design: dose 5 uM, timepoint 0, 0.75, 1.5, 3, 6, 9, 12 hours; conditions: 5 µM
[11] = The drug is tested on the gut metagenome community of T-02 with ENA study accession number: PRJEB31790 for biotransformation under microaerobic condition. The drug concentrations were measured over 7 timepoints collected between 0 and 12 hours of incubation by liquid-chromatography-coupled mass spectrometry (LC–MS); design: dose 5 uM, timepoint 0, 0.75, 1.5, 3, 6, 9, 12 hours; conditions: 5 µM
[12] = The drug is tested on Streptococcus salivarius strain: DSM20560 for biotransformation under microaerobic condition. The drug concentrations were measured over 6 timepoints collected between 0 and 12 hours of incubation by liquid-chromatography-coupled mass spectrometry (LC–MS); design: dose 5 uM, timepoint 0, 1.5, 3, 6, 9, 12 hours; conditions: 5 µM
[13] = The drug is tested on the gut metagenome community of T-02 with ENA study accession number: PRJEB31790 for biotransformation under anaerobic condition. The drug concentrations were measured over 7 timepoints collected between 0 and 12 hours of incubation by liquid-chromatography-coupled mass spectrometry (LC–MS); design: dose 5 uM, timepoint 0, 0.75, 1.5, 3, 6, 9, 12 hours; conditions: 5 µM
[14] = The drug is tested on Lactobacillus reuteri strain: DSM20016 for biotransformation under anaerobic condition. The drug concentrations were measured over 6 timepoints collected between 0 and 12 hours of incubation by liquid-chromatography-coupled mass spectrometry (LC–MS); design: dose 5 uM, timepoint 0, 1.5, 3, 6, 9, 12 hours; conditions: limosilactobacillus reuteri, 5 µM
[15] = The drug is tested on the gut metagenome community of T-04 with ENA study accession number: PRJEB31790 for biotransformation under microaerobic condition. The drug concentrations were measured over 7 timepoints collected between 0 and 12 hours of incubation by liquid-chromatography-coupled mass spectrometry (LC–MS); design: dose 5 uM, timepoint 0, 0.75, 1.5, 3, 6, 9, 12 hours; conditions: 5 µM
[16] = The drug is tested on the gut metagenome community of T-04 with ENA study accession number: PRJEB31790 for biotransformation under anaerobic condition. The drug concentrations were measured over 7 timepoints collected between 0 and 12 hours of incubation by liquid-chromatography-coupled mass spectrometry (LC–MS); design: dose 5 uM, timepoint 0, 0.75, 1.5, 3, 6, 9, 12 hours; conditions: 5 µM
[17] = The drug is tested on the gut metagenome community of A-02 with ENA study accession number: PRJEB31790 for biotransformation under microaerobic condition. The drug concentrations were measured over 7 timepoints collected between 0 and 12 hours of incubation by liquid-chromatography-coupled mass spectrometry (LC–MS); design: dose 5 uM, timepoint 0, 0.75, 1.5, 3, 6, 9, 12 hours; conditions: 5 µM
[18] = The drug is tested on Streptococcus salivarius strain: DSM20560 for biotransformation under anaerobic condition. The drug concentrations were measured over 6 timepoints collected between 0 and 12 hours of incubation by liquid-chromatography-coupled mass spectrometry (LC–MS); design: dose 5 uM, timepoint 0, 1.5, 3, 6, 9, 12 hours; conditions: 5 µM
[19] = The drug is tested on Escherichia coli strain: DSM27469 for biotransformation under microaerobic condition. The drug concentrations were measured over 6 timepoints collected between 0 and 12 hours of incubation by liquid-chromatography-coupled mass spectrometry (LC–MS); design: dose 5 uM, timepoint 0, 1.5, 3, 6, 9, 12 hours; conditions: 5 µM
[20] = The drug is tested on Escherichia coli strain: DSM27469 for biotransformation under anaerobic condition. The drug concentrations were measured over 6 timepoints collected between 0 and 12 hours of incubation by liquid-chromatography-coupled mass spectrometry (LC–MS); design: dose 5 uM, timepoint 0, 1.5, 3, 6, 9, 12 hours; conditions: 5 µM
[21] = The drug is tested on the gut metagenome community of T-01 with ENA study accession number: PRJEB31790 for biotransformation under microaerobic condition. The drug concentrations were measured over 7 timepoints collected between 0 and 12 hours of incubation by liquid-chromatography-coupled mass spectrometry (LC–MS); design: dose 5 uM, timepoint 0, 0.75, 1.5, 3, 6, 9, 12 hours; conditions: 5 µM
[22] = The drug is tested on Capnocytophaga ochracea strain: DSM7271 for biotransformation under anaerobic condition. The drug concentrations were measured over 6 timepoints collected between 0 and 12 hours of incubation by liquid-chromatography-coupled mass spectrometry (LC–MS); design: dose 5 uM, timepoint 0, 1.5, 3, 6, 9, 12 hours; conditions: 5 µM
[23] = The drug is tested on Streptococcus sanguinis strain: DSM20567 for biotransformation under microaerobic condition. The drug concentrations were measured over 6 timepoints collected between 0 and 12 hours of incubation by liquid-chromatography-coupled mass spectrometry (LC–MS); design: dose 5 uM, timepoint 0, 1.5, 3, 6, 9, 12 hours; conditions: 5 µM
[24] = The drug is tested on Roseburia intestinalis strain: DSM14610 for biotransformation under anaerobic condition. The drug concentrations were measured over 6 timepoints collected between 0 and 12 hours of incubation by liquid-chromatography-coupled mass spectrometry (LC–MS); design: dose 5 uM, timepoint 0, 1.5, 3, 6, 9, 12 hours; conditions: 5 µM
[25] = The drug is tested on Bifidobacterium longum strain: DSM20088 for biotransformation under microaerobic condition. The drug concentrations were measured over 6 timepoints collected between 0 and 12 hours of incubation by liquid-chromatography-coupled mass spectrometry (LC–MS); design: dose 5 uM, timepoint 0, 1.5, 3, 6, 9, 12 hours; conditions: 5 µM

Row | Compound | Bacterial Biotransformation [1] | Bacterial Biotransformation [2] | Bacterial Biotransformation [3] | Bacterial Biotransformation [4] | Bacterial Biotransformation [5] | Bacterial Biotransformation [6] | Bacterial Biotransformation [7] | Bacterial Biotransformation [8] | Bacterial Biotransformation [9] | Bacterial Biotransformation [10] | Bacterial Biotransformation [11] | Bacterial Biotransformation [12] | Bacterial Biotransformation [13] | Bacterial Biotransformation [14] | Bacterial Biotransformation [15] | Bacterial Biotransformation [16] | Bacterial Biotransformation [17] | Bacterial Biotransformation [18] | Bacterial Biotransformation [19] | Bacterial Biotransformation [20] | other results
1 | CN(Cc1cnc2nc(N)nc(N)c2n1)c1ccc(C(=O)N[C@@H](CCC(=O)O)C(=O)O)cc1 [METHOTREXATE] | Compound NOT metabolized | Compound NOT metabolized | Compound NOT metabolized | Compound NOT metabolized | Compound NOT metabolized | Compound NOT metabolized | Compound metabolized | Compound NOT metabolized | Compound NOT metabolized | Compound NOT metabolized | Compound metabolized | Compound NOT metabolized | Compound metabolized | Compound NOT metabolized | Compound NOT metabolized | Compound NOT metabolized | Compound metabolized | Compound NOT metabolized | Compound NOT metabolized | Compound NOT metabolized | Bacterial Biotransformation [21]: Compound metabolized; Bacterial Biotransformation [22]: Compound NOT metabolized; Bacterial Biotransformation [23]: Compound NOT metabolized; Bacterial Biotransformation [24]: Compound metabolized; Bacterial Biotransformation [25]: Compound NOT metabolized
2 | C[C@H]1C[C@@H]2[C@H]([C@@H](O)C[C@@]3(C)[C@H]2CC[C@]3(O)C(=O)CO)[C@@]2(C)C=CC(=O)C=C12 [METHYLPREDNISOLONE] | Compound NOT metabolized | Compound NOT metabolized | Compound NOT metabolized | Compound metabolized | Compound NOT metabolized | Compound NOT metabolized | Compound metabolized | Compound NOT metabolized | Compound metabolized | Compound metabolized | Compound metabolized | Compound NOT metabolized | Compound metabolized | Compound NOT metabolized | Compound NOT metabolized | Compound NOT metabolized | Compound metabolized | Compound NOT metabolized | Compound NOT metabolized | Compound NOT metabolized | Bacterial Biotransformation [21]: Compound metabolized; Bacterial Biotransformation [22]: Compound NOT metabolized; Bacterial Biotransformation [23]: Compound NOT metabolized; Bacterial Biotransformation [24]: Compound NOT metabolized; Bacterial Biotransformation [25]: Compound NOT metabolized
